Measurements reported in PubChem BioAssay (NCI).
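Results reflect a 48-hour exposure of cells in 96-well plates to compound at five concentrations. TGI: concentration producing complete growth inhibition.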

Legend:
Assay in all cases: NCI-60 cell line screen, 48 h
[1] = test system: NCI-H23 lung
[2] = test system: KM12 colon
[3] = test system: 786-0 renal
[4] = test system: MCF7 breast
[5] = test system: SK-MEL-28 melanoma
[6] = test system: SN12C renal
[7] = test system: OVCAR-5 ovarian
[8] = test system: PC-3 prostate
[9] = test system: OVCAR-4 ovarian
[10] = test system: CCRF-CEM leukemia
[11] = test system: HOP-92 NSCLC
[12] = test system: A549 NSCLC
[13] = test system: MDA-MB-231 breast
[14] = test system: TK-10 renal
[15] = test system: MOLT-4 leukemia
[16] = test system: SK-OV-3 ovarian
[17] = test system: HCT-15 colon
[18] = test system: HS 578T breast
[19] = test system: T-47D breast
[20] = test system: SK-MEL-2 melanoma
[21] = test system: CAKI-1 renal
[22] = test system: NCI-H522 lung
[23] = test system: BT-549 breast
[24] = test system: UACC-257 melanoma
[25] = test system: SF-268 CNS
[26] = test system: OVCAR-3 ovarian
[27] = test system: NCI/ADR-RES ovarian
[28] = test system: UACC-62 melanoma
[29] = test system: UO-31 renal
[30] = test system: HCT-116 colon
[31] = test system: U251 CNS
[32] = test system: A498 renal
[33] = test system: HL-60(TB) leukemia
[34] = test system: M14 melanoma
[35] = test system: LOX IMVI melanoma
[36] = test system: ACHN renal
[37] = test system: IGROV1 ovarian
[38] = test system: K-562 leukemia
[39] = test system: SW-620 colon
[40] = test system: NCI-H460 lung
[41] = test system: SF-295 CNS
[42] = test system: COLO 205 colon
[43] = test system: NCI-H226 lung
[44] = test system: HT29 colon
[45] = test system: HOP-62 NSCLC
[46] = test system: OVCAR-8 ovarian
[47] = test system: SK-MEL-5 melanoma
[48] = test system: SNB-19 CNS
[49] = test system: MDA-MB-435
[50] = test system: EKVX NSCLC
[51] = test system: MDA-N
[52] = test system: RXF 393 renal
[53] = test system: MALME-3M melanoma
[54] = test system: RPMI-8226 leukemia
[55] = test system: SF-539 CNS
[56] = test system: HCC-2998 colon
[57] = test system: DU-145 prostate
[58] = test system: SNB-75 CNS

NC12CC3C4CC5(N)CC3C(C1)C(C5)C4C2
TGI [1]: > 100 µM
TGI [2]: > 100 µM
TGI [3]: > 100 µM
TGI [4]: > 100 µM
TGI [5]: > 100 µM
TGI [6]: > 100 µM
TGI [7]: > 100 µM
TGI [8]: > 100 µM
TGI [9]: > 100 µM
TGI [10]: > 100 µM
TGI [11]: > 100 µM
TGI [12]: > 100 µM
TGI [13]: > 100 µM
TGI [14]: > 100 µM
TGI [15]: > 100 µM
TGI [16]: > 100 µM
TGI [17]: > 100 µM
TGI [18]: > 100 µM
TGI [19]: > 100 µM
TGI [20]: > 100 µM
TGI [21]: > 100 µM
TGI [22]: > 100 µM
TGI [23]: > 100 µM
TGI [24]: > 100 µM
TGI [25]: > 100 µM
TGI [26]: > 100 µM
TGI [27]: > 100 µM
TGI [28]: > 100 µM
TGI [29]: > 100 µM
TGI [30]: > 100 µM
TGI [31]: > 100 µM
TGI [32]: > 100 µM
TGI [33]: > 100 µM
TGI [34]: > 100 µM
TGI [35]: > 100 µM
TGI [36]: > 100 µM
TGI [37]: > 100 µM
TGI [38]: > 100 µM
TGI [39]: > 100 µM
TGI [40]: > 100 µM
TGI [41]: > 100 µM
TGI [42]: > 100 µM
TGI [43]: > 100 µM
TGI [44]: > 100 µM
TGI [45]: > 100 µM
TGI [46]: > 100 µM
TGI [47]: > 100 µM
TGI [48]: > 100 µM
TGI [49]: > 100 µM
TGI [50]: > 100 µM
TGI [51]: > 100 µM
TGI [52]: > 100 µM
TGI [53]: > 100 µM

C=CCN(c1cc(OCc2ccccc2)c2c(c(C)cn2S(=O)(=O)c2ccc([N+](=O)[O-])cc2)c1[N+](=O)[O-])S(C)(=O)=O
TGI [1]: > 100 µM
TGI [2]: > 100 µM
TGI [54]: > 100 µM
TGI [3]: > 100 µM
TGI [4]: > 100 µM
TGI [5]: > 100 µM
TGI [6]: > 100 µM
TGI [7]: > 100 µM
TGI [8]: > 100 µM
TGI [9]: > 100 µM
TGI [10]: > 52.3 µM
TGI [11]: > 100 µM
TGI [12]: > 100 µM
TGI [13]: > 100 µM
TGI [55]: > 100 µM
TGI [14]: > 100 µM
TGI [15]: > 100 µM
TGI [16]: > 100 µM
TGI [17]: > 100 µM
TGI [18]: > 100 µM
TGI [19]: > 100 µM
TGI [56]: > 100 µM
TGI [20]: > 100 µM
TGI [21]: > 100 µM
TGI [22]: > 100 µM
TGI [23]: > 100 µM
TGI [24]: > 100 µM
TGI [25]: > 100 µM
TGI [26]: > 100 µM
TGI [27]: > 100 µM
TGI [28]: > 100 µM
TGI [29]: > 100 µM
TGI [30]: > 100 µM
TGI [31]: > 100 µM
TGI [34]: > 100 µM
TGI [35]: > 100 µM
TGI [36]: > 100 µM
TGI [37]: > 100 µM
TGI [38]: > 100 µM
TGI [40]: > 100 µM
TGI [41]: > 100 µM
TGI [42]: > 100 µM
TGI [43]: > 100 µM
TGI [44]: > 100 µM
TGI [45]: > 100 µM
TGI [46]: > 100 µM
TGI [47]: > 100 µM
TGI [48]: > 100 µM
TGI [57]: > 100 µM
TGI [49]: 54.1 µM
TGI [50]: > 100 µM
TGI [58]: > 100 µM
TGI [51]: > 100 µM
TGI [52]: > 100 µM
TGI [53]: > 100 µM
